Experimental findings from PMC7558102, “Hybrid Multimodal Imaging Synthons for Chemoselective and Efficient Biomolecule Modification with Chelator and Near-Infrared Fluorescent Cyanine Dye” (Pharmaceuticals, 2020) are described below.

A short description of data set [1]: logD of the unconjugated NIR cyanine dyes 1–3. The data set is classed as physicochemical. The settings on record: 1-octanol/water; unconjugated dye.
A short description of data set [2]: photophysical properties (absorbance and emission measurements). The data set is classed as physicochemical. The note with it: for log ε: at λmax(abs); for λmax(em): excitation wavelength λex = 650 nm. As for the experimental part: Finally, the photophysical properties were determined for dyes, MIS and their conjugates. It could be shown that the photophysical properties remained largely unaltered, including absorption coefficients and emission characteristics (Table 1). […] The only change in photophysical properties we qualitatively observed was an increase in the quantum yields of the dye conjugates compared to their unconjugated leads 1–3, an effect that was described before and can be attributed to the conjugation of sterically demanding groups (such as the PESIN homodimers used here), resulting in a decrease in aggregation of the dye molecules and thus a reduced fluorescence quenching. γ-Counting was performed using a 2480 Wizard gamma counter system from Perkin Elmer. A Cary 100 Bio system (Varian) was used to record the UV/Vis-Spectra together with 4 mL PMMA cuvettes from Sigma-Aldrich. Furthermore, for absorbance and emission measurements, a Tecan Infinite M200 Microplate reader together with a Nunc Micro-Well 96 solid plate from ThermoFisher was used.

The format of data set [3] is physicochemical. The settings on record: pH 7.4. As for the experimental part: (§1) The mixtures were vigorously shaken for 5 min on a vibrating plate. After subsequent centrifugation at 13,000 rpm for 5 min, 125 µL was taken from each phase and measured in a γ-counter. The logD values were calculated from three or four independent experiments, each performed in triplicate. For 18, the logD was determined by semipreparative HPLC. For this purpose, a solution of 18 (10 µL, c = 5 × 10^−4 mol/L) in water was added to a mixture of 1 mL 1-octanol and 990 µL phosphate buffered solution (0.05 M, pH 7.4) and vigorously shaken for 5 min. After centrifugation, the phases were separated and both phases were analyzed by semipreparative HPLC and the peaks of the UV signals at 214 nm were integrated. The logD was determined by three separate measurements, each experiment performed in triplicate.

Data set [4] is described as follows: water/1-octanol partition coefficients (logD) of 68Ga-labeled compounds, γ-counting. The data set is classed as physicochemical. The settings on record: pH 7.4. As for the experimental part:
as §1

Structures are written as SMILES. Read-outs that look alike come from different tables or passages of the source.

Usually logD stands for lipophilicity at a set pH, counting ionised and neutral species. Read a high logD as higher lipophilicity. For the compound `CC1(C)C(/C=C/C2=C(c3ccc(C(=O)O)cc3)C(=C/C=C3/N(CCCCS(=O)(=O)[O-])c4ccc5ccccc5c4C3(C)C)/CCC2)=[N+](CCCCS(=O)(=O)O)c2ccc3ccccc3c21` [Compound 1], in data set [1], the logD was -1.03 ± 0.11. Moreover, in data set [2], the “Stokes Shift” value is reported as 11 nm, the “λmax(abs)” value is given as 804 nm, the “log ε” value is 5.00 M^−1 cm^−1 and the “λmax(em)” value was found to be 815 nm.

In turn, `CC1(C)C(/C=C/C2=C(c3ccccc3)C(=C/C=C3/N(CCCCS(=O)(=O)[O-])c4ccc(S(=O)(=O)O)cc4C3(C)C)/CCC2)=[N+](CCCCS(=O)(=O)O)c2ccc(C(=O)O)cc21` [Compound 2] gave a logD in data set [1] of -4 ± 0.11. Besides, in data set [2], the “Stokes Shift” value was determined as 20 nm, the “λmax(abs)” value stood at 761 nm, the “log ε” value is 5.44 M^−1 cm^−1 and the “λmax(em)” value is on record as 781 nm.

For the compound `CC1(C)C(/C=C/C2=C(c3ccc(CCC(=O)O)cc3)C(=C/C=C3/N(CCCCS(=O)(=O)[O-])c4ccc(S(=O)(=O)O)cc4C3(C)C)/CCC2)=[N+](CCCCS(=O)(=O)O)c2ccc(S(=O)(=O)O)cc21` [Compound 3], the logD in data set [1] was -3.95 ± 0.15. In data set [2], the “Stokes Shift” value was 19 nm, the “λmax(abs)” value worked out at 756 nm, the “log ε” value is recorded as 5.32 M^−1 cm^−1 and the “λmax(em)” value is 775 nm.

`CSCC[C@H](NC(=O)[C@H](CC(C)C)NC(=O)[C@H](Cc1c[nH]cn1)NC(=O)CNC(=O)[C@@H](NC(=O)[C@H](C)NC(=O)[C@H](Cc1c[nH]c2ccccc12)NC(=O)[C@H](CCC(N)=O)NC(=O)CCOCCOCCOCCOCCNC(=O)CON=Cc1ccc(C(=O)NCCCN(CCCNC(=O)c2ccc(C=NOCC(=O)NCCOCCOCCOCCOCCC(=O)N[C@@H](CCC(N)=O)C(=O)N[C@@H](Cc3c[nH]c4ccccc34)C(=O)N[C@@H](C)C(=O)N[C@H](C(=O)NCC(=O)N[C@@H](Cc3c[nH]cn3)C(=O)N[C@@H](CC(C)C)C(=O)N[C@@H](CCSC)C(N)=O)C(C)C)cc2)CC(=O)N[C@H](CSC2CC(=O)N(CCN3C(=O)CC(SC)C3=O)C2=O)C(=O)NCCOCCOCC(N)=O)cc1)C(C)C)C(N)=O` (stereo partly drawn) [Compound 18]: in data set [3], the logD was -0.99 ± 0.03.

In turn, `CSCC[C@H](NC(=O)[C@H](CC(C)C)NC(=O)[C@H](Cc1c[nH]cn1)NC(=O)CNC(=O)[C@@H](NC(=O)[C@H](C)NC(=O)[C@H](Cc1c[nH]c2ccccc12)NC(=O)[C@H](CCC(N)=O)NC(=O)CCOCCOCCOCCOCCNC(=O)CON=Cc1ccc(C(=O)NCCCN(CCCNC(=O)c2ccc(C=NOCC(=O)NCCOCCOCCOCCOCCC(=O)N[C@@H](CCC(N)=O)C(=O)N[C@@H](Cc3c[nH]c4ccccc34)C(=O)N[C@@H](C)C(=O)N[C@H](C(=O)NCC(=O)N[C@@H](Cc3c[nH]cn3)C(=O)N[C@@H](CC(C)C)C(=O)N[C@@H](CCSC)C(N)=O)C(C)C)cc2)CC(=O)N[C@H](CSC2CC(=O)N(CCN3C(=O)CC(SC[C@H](NC(=O)[C@H](CCCCNC(=O)CCc4ccc(C5=C(C=CC6=[N+](CCCCS(=O)(=O)[O-])c7ccc(S(=O)(=O)O)cc7C6(C)C)CCCC5=CC=C5N(CCCCS(=O)(=O)O)c6ccc(S(=O)(=O)O)cc6C5(C)C)cc4)NC(=O)CC[C@H](C(=O)O)N4CCN(CC(=O)O)CCN(CC(=O)O)CC4)C(N)=O)C3=O)C2=O)C(=O)NCCOCCOCC(N)=O)cc1)C(C)C)C(N)=O` (stereo partly drawn) [[68Ga]Ga-16, metal not drawn] yielded a logD in data set [4] of -2.55 ± 0.13.

Consider `CSCC[C@H](NC(=O)[C@H](CC(C)C)NC(=O)[C@H](Cc1c[nH]cn1)NC(=O)CNC(=O)[C@@H](NC(=O)[C@H](C)NC(=O)[C@H](Cc1c[nH]c2ccccc12)NC(=O)[C@H](CCC(N)=O)NC(=O)CCOCCOCCOCCOCCNC(=O)CON=Cc1ccc(C(=O)NCCCN(CCCNC(=O)c2ccc(C=NOCC(=O)NCCOCCOCCOCCOCCC(=O)N[C@@H](CCC(N)=O)C(=O)N[C@@H](Cc3c[nH]c4ccccc34)C(=O)N[C@@H](C)C(=O)N[C@H](C(=O)NCC(=O)N[C@@H](Cc3c[nH]cn3)C(=O)N[C@@H](CC(C)C)C(=O)N[C@@H](CCSC)C(N)=O)C(C)C)cc2)CC(=O)N[C@H](CSC2CC(=O)N(CCN3C(=O)CC(SC[C@H](NC(=O)CNC(=O)CC[C@H](C(=O)O)N4CCN(CC(=O)O)CCN(CC(=O)O)CC4)C(N)=O)C3=O)C2=O)C(=O)NCCOCCOCC(N)=O)cc1)C(C)C)C(N)=O` (stereo partly drawn) [[68Ga]Ga-17, metal not drawn], for which, in data set [4], the logD is -2.38 ± 0.03.
